From patent US7825256B2, “Inducible nitric oxide synthase dimerization inhibitors” (Kalypsys, Inc., priority 2004, dated 2010)
Structures can show the parent of a compound that is named as a salt.

How the values were obtained:
rat = test: Capsaicin test (topical capsaicin allodynia); format: in vivo
Excerpt: Subcutaneous injection of dilute capsaicin into the rat hind paw produces transient but pronounced hyperalgesia, allodynia and pain. This effect may be mitigated by pretreatment with a suitable agent, such as a topical anaesthetic or analgesic, and the extent of this mitigation quantified by evaluation of pain-related behaviors in response to noxious or innocuous stimuli as described above; rats pretreated with a known analgesic display fewer pain and allodynia related behaviors than controls. Compounds may be evaluated for their efficacy as potential analgesics in this manner as well.
Male Lewis rats weighing between 180 and 250 grams are used. The right hind paw is dipped into vehicle (100% acetone) or compound in vehicle for 30 seconds and then allowed to air-dry for 30 sec. To prevent the animal from licking the compound off the paw, the paw is wiped twice with a wet paper towel. At 15 min after application of vehicle or compound, 0.1 mg in 10 μL capsaicin is injected into right hind paw. Measurement of allodynia is performed 0.5 to 1 hour after capsaicin injection.
One procedure for quantifying allodynia measures the rat behavioral response to presentation of von Frey filaments of increasing diameter. Each rat is placed in a small, clear cage on an elevated screen. Beginning with 4.31, the von Frey hair is presented perpendicularly to the right mid-plantar hind paw with sufficient force to cause slight buckling, for 6-8 seconds. If presentation lifts the hind paw it is disregarded, as it changes the nature of the stimulus. A positive response is noted if the paw is sharply withdrawn upon onset or offset of stimulus. Ambulation is considered an ambiguous response and the presentation is repeated. Stimuli are presented in a consecutive fashion. A positive response would call for the presentation of the immediately weaker weight filament next; likewise, no response would call for the immediately stronger. Presentations continue until a series of six consecutive responses from the first change is logged. The next rat is then tested. This procedure is standard in the art for the measurement of allodynia, but any other method known in the art which provides adequate sensitivity and reproducibility may be substituted.

hiNOS = biological target: T1, hiNOS (Homo sapiens, UniProt P35228); test: DAN assay, hiNOS expressed in transiently transfected HEK293 cells; format: cell-based; settings: HEK293 cells transiently transfected with hiNOS
T1 construct: expressed in transfected cells; host or cells: HEK293
How it was run: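 Human iNOS, nNOS or eNOS transiently expressed in HEK293 cells, with nNOS and eNOS needing added cofactors for activity. NO production is read as nitrite by fluorometry: 2,3-diaminonaphthalene forms fluorescent […], detecting 10 nM to 10 μM nitrite.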

[1] = at 0.5 hr after capsaicin injection
[2] = at 1 hr after capsaicin injection

EC50 (hiNOS) [µM]	SMILES	Topical Capsaicin Allodynia (rat; [1])	Topical Capsaicin Allodynia (rat; [2])
< 1	O=C(NCCc1ccc2c(c1)OCO2)[C@H]1C[C@@H](O)CN1c1nc(-n2ccnc2)ns1 [Example 28, (2R,4R)-4-Hydroxy-1-(3-imidazol-1-yl-[1,2,4]thiadiazol-5-yl)-pyrrolidine-2-carboxylic acid (2-benzo[1,3]dioxol-5-yl-ethyl)-amide]	+ at 0.5 hr ((+) = >15% inhibition)	+ at 1 hr ((+) = >15% inhibition)
< 1	CN(CCCN(CC(N)=O)c1nc(-n2ccnc2)ns1)Cc1ccc2c(c1)OCO2 [Example 59, 2-[[3-(Benzo[1,3]dioxol-5-ylmethyl-methyl-amino)-propyl]-(3-imidazol-1-yl-[1,2,4]thiadiazol-5-yl)-amino]-acetamide]	+ at 0.5 hr ((+) = >15% inhibition)	+ at 1 hr ((+) = >15% inhibition)
< 1	Cc1cc(C(C)NCCNCc2ccc3c(c2)OCO3)nc(-n2ccnc2)n1 (centres unmarked) [Example 38, N-Benzo[1,3]dioxol-5-ylmethyl-N′-[1-(2-imidazol-1-yl-6-methyl-pyrimidin-4-yl)-ethyl]-ethane-1,2-diamine]	+ at 0.5 hr ((+) = >15% inhibition)	+ at 1 hr ((+) = >15% inhibition)
< 1	Cc1cc(CNC(=O)NCCc2ccc3c(c2)OCO3)nc(-n2ccnc2)n1 [Example 13, 1-(2-Benzo[1,3]dioxol-5-yl-ethyl)-3-(2-imidazol-1-yl-6-methyl-pyrimidin-4-ylmethyl)-urea]	− at 0.5 hr ((−) = <15% inhibition)	+ at 1 hr ((+) = >15% inhibition)
< 1	c1cn(-c2nsc(N(CCCNCc3ccc4c(c3)OCO4)Cc3nccs3)n2)cn1 [Example 49, N′-Benzo[1,3]dioxol-5-ylmethyl-N-(3-imidazol-1-yl-[1,2,4]thiadiazol-5-yl)-N-thiazol-2-ylmethyl-propane-1,3-diamine]	+ at 0.5 hr ((+) = >15% inhibition)	+ at 1 hr ((+) = >15% inhibition)
> 50	CN(CCCNCc1ccccc1)c1nc(-n2ccnc2)ns1 [Example 12, N′-Benzyl-N-(3-imidazol-1-yl-[1,2,4]thiadiazol-5-yl)-N-methyl-propane-1,3-diamine]	− at 0.5 hr ((−) = <15% inhibition)	− at 1 hr ((−) = <15% inhibition)
< 1	O=C(NCCc1ccc2c(c1)OCO2)[C@H]1CCCN1c1nc(-n2ccnc2)ns1 [Example 29, (R)-1-(3-Imidazol-1-yl-[1,2,4]thiadiazol-5-yl)pyrrolidine-2-carboxylic acid (2-benzo[1,3]dioxol-5-yl-ethyl)-amide]	− at 0.5 hr ((−) = <15% inhibition)	+ at 1 hr ((+) = >15% inhibition)
< 1	CN(CCN1CCCC1c1nc(-n2ccnc2)ns1)Cc1ccc2c(c1)OCO2 (centres unmarked) [Example 89, Benzo[1,3]dioxol-5-ylmethyl-{2-[2-(3-imidazol-1-yl-[1,2,4]thiadiazol-5-yl)-pyrrolidin-1-yl]-ethyl}-methyl-amine]	–	–
–	c1csc(CN(CCCNCc2ccc3c(c2)OCO3)c2nc(-n3ccnc3)ns2)c1 [Example 50, N′-Benzo[1,3]dioxol-5-ylmethyl-N-(3-imidazol-1-yl-[1,2,4]thiadiazol-5-yl)-N-thiophen-2-ylmethyl-propane-1,3-diamine]	+ at 0.5 hr ((+) = >15% inhibition)	+ at 1 hr ((+) = >15% inhibition)
< 1	Cc1cc(C2CCCN2CCNCc2ccc3c(c2)OCO3)nc(-n2ccnc2)n1 (single isomer, unassigned) [Example 132, Benzo[1,3]dioxol-5-ylmethyl-{2-[2-(2-imidazol-1-yl-6-methyl-pyrimidin-4-yl)-pyrrolidin-1-yl]-ethyl}-amine]	–	–
< 1	CNC(=O)CC(NCCNCc1ccc2c(c1)OCO2)c1cc(C)nc(-n2ccnc2)n1 (centres unmarked) [Example 136, Benzo[1,3]dioxol-5-ylmethyl-{2-[1-(2-imidazol-1-yl-6-methyl-pyrimidin-4-yl)-2-methylcarbamoyl-ethylamino]-ethyl}-ammonium trifluoroacetate]	–	–
< 1	c1cncc(CN(CCCNCc2ccc3c(c2)OCO3)c2nc(-n3ccnc3)ns2)c1 [Example 102, N′-Benzo[1,3]dioxol-5-ylmethyl-N-(3-imidazol-1-yl-[1,2,4]thiadiazol-5-yl)-N-pyridin-3-ylmethyl-propane-1,3-diamine]	–	–
< 1	CSc1ccc(CN(CCCNCc2ccc3c(c2)OCO3)c2nc(-n3ccnc3)ns2)cc1 [Example 104, N′-Benzo[1,3]dioxol-5-ylmethyl-N-(3-imidazol-1-yl-[1,2,4]thiadiazol-5-yl)-N-(4-methylsulfanyl-benzyl)-propane-1,3-diamine]	–	–
< 1	CN(CCCN(C)c1nc(-n2ccnc2)ns1)CCc1ccc2c(c1)OCO2 [Example 88, N-(2-Benzo[1,3]dioxol-5-yl-ethyl)-N′-(3-imidazol-1-yl-[1,2,4]thiadiazol-5-yl)-N,N′-dimethyl-propane-1,3-diamine]	–	–
< 1	Cc1cc(C(C)NCCNCc2ccc3c(c2)OCCO3)nc(-n2ccnc2)n1 (centres unmarked) [Example 45, N-(2,3-Dihydro-benzo[1,4]dioxin-6-ylmethyl)-N′-[1-(2-imidazol-1-yl-6-methyl-pyrimidin-4-yl)-ethyl]-ethane-1,2-diamine]	–	–
< 1	CCOC(=O)C1CCC(C(=O)NCCc2ccc3c(c2)OCO3)N1c1nc(-n2ccnc2)ns1 (racemic) [Example 94, 5-(2-Benzo[1,3]dioxol-5-yl-ethylcarbamoyl)-1-(3-imidazol-1-yl-[1,2,4]thiadiazol-5-yl)-pyrrolidine-2-carboxylic acid ethyl ester]	–	–
< 1	O=C(NCCc1ccc2c(c1)OCO2)[C@@H]1C[C@@H](O)CN1c1nc(-n2ccnc2)ns1 [Example 27, (2S,4R)-4-Hydroxy-1-(3-imidazol-1-yl-[1,2,4]thiadiazol-5-yl)-pyrrolidine-2-carboxylic acid (2-benzo[1,3]dioxol-5-yl-ethyl)amide]	–	–
